Results: patent EP4667467A1, “PROTAC DEGRADERS OF MLLT1 AND/OR MLLT3” (Dark Blue Therapeutics Ltd, priority 2024, dated 2025)

Molecular target: T1, MLLT1 (Homo sapiens, UniProt Q03111)
T1 construct: endogenous in cells; host or cells: MV4-11 (ATCC CRL-9591)
T1 sequence (Q03111 1-559): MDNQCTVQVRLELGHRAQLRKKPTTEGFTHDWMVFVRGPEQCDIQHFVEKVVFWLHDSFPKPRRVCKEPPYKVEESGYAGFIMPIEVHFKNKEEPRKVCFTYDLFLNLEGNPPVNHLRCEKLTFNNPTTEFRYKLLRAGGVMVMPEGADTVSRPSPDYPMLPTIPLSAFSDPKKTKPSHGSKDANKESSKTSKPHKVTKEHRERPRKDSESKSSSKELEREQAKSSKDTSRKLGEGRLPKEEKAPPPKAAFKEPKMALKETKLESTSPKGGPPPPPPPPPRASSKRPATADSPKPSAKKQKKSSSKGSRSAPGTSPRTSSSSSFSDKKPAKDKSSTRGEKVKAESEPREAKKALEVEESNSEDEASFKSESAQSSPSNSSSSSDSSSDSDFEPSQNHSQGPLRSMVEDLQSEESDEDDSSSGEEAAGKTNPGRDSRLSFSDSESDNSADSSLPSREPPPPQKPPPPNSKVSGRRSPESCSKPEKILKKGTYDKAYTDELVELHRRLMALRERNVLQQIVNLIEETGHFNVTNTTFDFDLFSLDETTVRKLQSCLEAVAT
Assay: MLLT1 Degradation Assay (JESS automated chemiluminescent detection, MV4-11 cells)
Format: cell-based
Settings: 24h, with respect to DMSO control; for MLLT1 % Degradation @ 0.01 µM: 0.01 µM (10 nM) test compound; for MLLT1 % Degradation @ 0.1 µM: 0.1 µM (100 nM) test compound; for MLLT 1 % Degradation @ 1 µM: 1 µM (1000 nM) test compound
Procedure, shortened: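 MV4-11 cells were treated for 24 h at 37 °C, 5% CO2 with compound at 1000, 100 and 10 nM (0.1% DMSO). MLLT1 was quantified by automated capillary chemiluminescent immunodetection (JESS). Band peak areas were expressed as % degradation relative to DMSO control.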

Compound | MLLT1 % Degradation @ 0.01 µM | MLLT1 % Degradation @ 0.1 µM | MLLT 1 % Degradation @ 1 µM
CN1CCC[C@@H]1c1[nH]c2cc(NC(=O)CCCCCCC#Cc3cccc4c3CN(C3CCC(=O)NC3=O)C4=O)ncc2c1Cl (stereo partly drawn) [Example 13, N-(3-chloro-2-((R)-1-methylpyrrolidin-2-yl)-1H-pyrrolo [3,2-c]pyridin-6-yl)-9-(2-(2,6-dioxopiperidin-3-yl)-1-oxoisoindolin-4-yl) non-8-ynamide] | A (Category A: A ≥ 75% degradation) | A (Category A: A ≥ 75% degradation) | A (Category A: A ≥ 75% degradation)
CCN1CCC[C@@H]1c1cc2cnc(NC(=O)c3ccc(CCCCC#Cc4cccc5c4CN(C4CCC(=O)NC4=O)C5=O)nc3)cc2[nH]1 (stereo partly drawn) [Example 74, 6-(6-(2-(2,6-dioxopiperidin-3-yl)-1-oxoisoindolin-4-yl)hex-5-yn-1-yl)-N-(2-((R)-1-ethylpyrrolidin-2-yl)-1H-pyrrolo [3,2-c]pyridin-6-yl) nicotinamide] | B (Category B: 50% ≤ B < 75% degradation) | B (Category B: 50% ≤ B < 75% degradation) | B (Category B: 50% ≤ B < 75% degradation)
CN1CCC[C@@H]1c1cc2cnc(NC(=O)c3ccc(CCCCC#Cc4cccc(C(=O)N[C@H]5CCC(=O)NC5=O)n4)cc3)cc2[nH]1 [Example 7, N-((S)-2,6-dioxopiperidin-3-yl)-6-(6-(4-((2-((R)-1-methylpyrrolidin-2-yl)-1H-pyrrolo[3,2-c]pyridin-6-yl)carbamoyl)phenyl)hex-1-yn-1-yl)picolinamide] | A (Category A: A ≥ 75% degradation) | A (Category A: A ≥ 75% degradation) | A (Category A: A ≥ 75% degradation)
CN1CCC[C@@H]1c1cc2cnc(NC(=O)CCCCCCNc3cccc4c3C(=O)N(C3CCC(=O)NC3=O)C4=O)cc2[nH]1 (stereo partly drawn) [Example 29, 7-{[2-(2,6-dioxopiperidin-3-yl)-1,3-dioxoisoindol-4-yl]amino}-N-{2-[(2R)-1-methylpyrrolidin-2-yl]-1H-pyrrolo[3,2-c]pyridin-6-yl}heptanamide] | D (Category D: D < 25% degradation) | C (Category C: 25% ≤ C < 50% degradation) | A (Category A: A ≥ 75% degradation)
CN1CCC[C@@H]1c1cc2cnc(NC(=O)c3ccc(OCC#Cc4cccc5c4CN(C4CCC(=O)NC4=O)C5=O)cc3F)cc2[nH]1 (stereo partly drawn) [Example 57, 4-((3-(2-(2,6-dioxopiperidin-3-yl)-1-oxoisoindolin-4-yl)prop-2-yn-1-yl)oxy)-2-fluoro-N-(2-((R)-1-methylpyrrolidin-2-yl)-1H-pyrrolo[3,2-c]pyridin-6-yl)benzamide] | A (Category A: A ≥ 75% degradation) | A (Category A: A ≥ 75% degradation) | A (Category A: A ≥ 75% degradation)
CN1CCC[C@@H]1c1cc2cnc(NC(=O)c3ccc(-c4cnn(CCCC#Cc5ccc6c(c5)CN(C5CCC(=O)NC5=O)C6=O)c4)cc3)cc2[nH]1 (stereo partly drawn) [Example 22, 4-(1-(5-(2-(2,6-dioxopiperidin-3-yl)-1-oxoisoindolin-5-yl)pent-4-yn-1-yl)-1H-pyrazol-4-yl)-N-(2-((R)-1-methylpyrrolidin-2-yl)-1H-pyrrolo[3,2-c]pyridin-6-yl)benzamide] | A (Category A: A ≥ 75% degradation) | A (Category A: A ≥ 75% degradation) | A (Category A: A ≥ 75% degradation)
CN1CCC[C@@H]1c1cc2cnc(NC(=O)c3cnc(N4CCC(C#Cc5cccc6c5CN(C5CCC(=O)NC5=O)C6=O)CC4)nc3)cc2[nH]1 (stereo partly drawn) [Example 65, 2-(4-((2-(2,6-dioxopiperidin-3-yl)-1-oxoisoindolin-4-yl)ethynyl)piperidin-1-yl)-N-(2-((R)-1-methylpyrrolidin-2-yl)-1H-pyrrolo[3,2-c]pyridin-6-yl)pyrimidine-5-carboxamide] | B (Category B: 50% ≤ B < 75% degradation) | B (Category B: 50% ≤ B < 75% degradation) | B (Category B: 50% ≤ B < 75% degradation)
